Laboratory results: ChEMBL document CHEMBL3865849, “Development of N-(4-Phenoxyphenyl)benzenesulfonamide Derivatives as Novel Nonsteroidal Progesterone Receptor Antagonists” (ACS Med Chem Lett, 2016)
Active and inactive are the calls of the source. The calls are words filed in the database; no cut-off is given here.

Key:
Progesterone receptor [1] = target: T1, Progesterone receptor (Homo sapiens, UniProt P06401); test: Antagonist activity at progesterone receptor in human T47D cells incubated for 24 hrs in presence of P4 by alkaline phosphatase assay; assay type: cell-based
T1 sequence (P06401 whole entry): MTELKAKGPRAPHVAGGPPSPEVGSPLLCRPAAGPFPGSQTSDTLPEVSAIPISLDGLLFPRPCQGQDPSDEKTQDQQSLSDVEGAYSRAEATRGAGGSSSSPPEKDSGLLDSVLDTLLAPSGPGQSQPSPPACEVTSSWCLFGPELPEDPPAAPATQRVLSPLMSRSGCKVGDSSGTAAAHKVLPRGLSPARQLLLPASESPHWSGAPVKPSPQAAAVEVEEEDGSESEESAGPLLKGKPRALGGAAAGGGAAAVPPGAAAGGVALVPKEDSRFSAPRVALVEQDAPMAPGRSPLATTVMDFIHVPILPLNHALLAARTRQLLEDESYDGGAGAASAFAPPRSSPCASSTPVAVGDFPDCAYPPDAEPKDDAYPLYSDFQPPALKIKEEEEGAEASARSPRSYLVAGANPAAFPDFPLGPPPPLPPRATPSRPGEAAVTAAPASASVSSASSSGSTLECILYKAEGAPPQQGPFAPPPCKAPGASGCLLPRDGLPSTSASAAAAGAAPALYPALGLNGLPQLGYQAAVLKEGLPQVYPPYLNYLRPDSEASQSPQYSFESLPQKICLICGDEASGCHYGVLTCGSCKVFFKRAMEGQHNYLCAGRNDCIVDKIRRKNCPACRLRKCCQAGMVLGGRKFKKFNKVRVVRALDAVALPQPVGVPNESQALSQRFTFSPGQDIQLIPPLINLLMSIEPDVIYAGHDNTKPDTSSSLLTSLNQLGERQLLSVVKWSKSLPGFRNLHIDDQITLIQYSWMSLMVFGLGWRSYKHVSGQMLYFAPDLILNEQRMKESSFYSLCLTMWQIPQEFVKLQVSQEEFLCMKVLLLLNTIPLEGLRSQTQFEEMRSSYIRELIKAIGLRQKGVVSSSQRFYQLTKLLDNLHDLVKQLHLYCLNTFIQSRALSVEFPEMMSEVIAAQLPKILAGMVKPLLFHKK

Progesterone receptor [2] = target: T1, Progesterone receptor; test: Displacement of [1,2,6,7-3H]-PG from recombinant human GST-tagged PR-LBD (657 to 933 residues) expressed in baculovirus infected insect cells measured after 24 hrs by liquid scintillation counting method
[3] = target: T2, Progesterone receptor (Homo sapiens) (UniProt P06401); test: Antagonist activity at progesterone receptor in human T47D cells assessed as suppression of P4-induced Na/K-ATPase-beta1 expression level at 1 and 10 uM measured after 16 hrs by Western blot analysis; assay type: cell-based
T2 sequence (whole entry): T1 sequence (P06401 whole entry)

Estrogen receptor beta = Estrogen receptor beta (Homo sapiens, UniProt Q92731); test: Antagonist activity at human Gal4-tagged estrogen receptor-beta LBD expressed in HEK293 cells measured after 24 hrs by luciferase reporter gene assay; assay type: cell-based
Chain of Estrogen receptor beta (Q92731 whole entry, the tested form may be a part): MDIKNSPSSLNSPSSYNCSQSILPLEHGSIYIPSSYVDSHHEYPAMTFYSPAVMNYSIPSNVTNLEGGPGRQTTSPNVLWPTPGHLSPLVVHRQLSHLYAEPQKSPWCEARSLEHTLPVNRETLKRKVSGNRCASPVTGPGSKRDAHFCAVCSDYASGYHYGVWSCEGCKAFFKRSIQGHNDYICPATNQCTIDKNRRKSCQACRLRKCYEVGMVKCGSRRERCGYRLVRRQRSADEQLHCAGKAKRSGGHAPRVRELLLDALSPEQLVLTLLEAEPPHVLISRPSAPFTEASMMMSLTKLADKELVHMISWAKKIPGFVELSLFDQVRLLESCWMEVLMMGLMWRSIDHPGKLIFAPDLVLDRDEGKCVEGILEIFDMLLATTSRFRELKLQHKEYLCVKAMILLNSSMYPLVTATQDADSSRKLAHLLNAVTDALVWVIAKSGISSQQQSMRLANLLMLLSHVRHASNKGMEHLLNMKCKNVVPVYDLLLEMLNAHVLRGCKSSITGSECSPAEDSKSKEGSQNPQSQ

Glucocorticoid receptor = target: T3, Glucocorticoid receptor (Homo sapiens, UniProt P04150); test: Antagonist activity at human glucocorticoid receptor-alpha expressed in HEK293 cells measured after 24 hrs by luciferase reporter gene assay; assay type: cell-based
T3 sequence (P04150 whole entry): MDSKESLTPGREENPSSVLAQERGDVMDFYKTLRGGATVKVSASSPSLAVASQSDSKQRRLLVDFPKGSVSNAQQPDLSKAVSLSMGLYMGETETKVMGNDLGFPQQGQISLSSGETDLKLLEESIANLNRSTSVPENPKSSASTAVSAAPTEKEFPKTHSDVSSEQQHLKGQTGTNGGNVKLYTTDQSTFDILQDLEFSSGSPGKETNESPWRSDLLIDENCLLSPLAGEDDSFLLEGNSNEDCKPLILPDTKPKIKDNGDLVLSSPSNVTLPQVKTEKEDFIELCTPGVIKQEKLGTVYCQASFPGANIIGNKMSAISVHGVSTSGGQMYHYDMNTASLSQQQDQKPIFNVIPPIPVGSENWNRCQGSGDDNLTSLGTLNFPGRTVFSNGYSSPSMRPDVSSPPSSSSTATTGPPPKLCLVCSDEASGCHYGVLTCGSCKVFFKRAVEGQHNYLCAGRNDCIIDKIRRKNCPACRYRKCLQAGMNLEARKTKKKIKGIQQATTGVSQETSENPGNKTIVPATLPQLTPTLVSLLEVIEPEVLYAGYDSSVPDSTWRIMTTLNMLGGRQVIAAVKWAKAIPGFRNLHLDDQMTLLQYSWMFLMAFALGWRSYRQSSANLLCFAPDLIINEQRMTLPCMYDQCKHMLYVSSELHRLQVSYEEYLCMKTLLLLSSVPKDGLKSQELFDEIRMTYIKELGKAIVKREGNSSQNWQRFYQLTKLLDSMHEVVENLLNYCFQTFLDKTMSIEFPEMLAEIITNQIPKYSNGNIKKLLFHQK

Estrogen receptor = target: T4, Estrogen receptor (Homo sapiens, UniProt P03372); test: Antagonist activity at human Gal4-tagged estrogen receptor-alpha LBD expressed in HEK293 cells measured after 24 hrs by luciferase reporter gene assay; assay type: cell-based
T4 sequence (P03372 whole entry): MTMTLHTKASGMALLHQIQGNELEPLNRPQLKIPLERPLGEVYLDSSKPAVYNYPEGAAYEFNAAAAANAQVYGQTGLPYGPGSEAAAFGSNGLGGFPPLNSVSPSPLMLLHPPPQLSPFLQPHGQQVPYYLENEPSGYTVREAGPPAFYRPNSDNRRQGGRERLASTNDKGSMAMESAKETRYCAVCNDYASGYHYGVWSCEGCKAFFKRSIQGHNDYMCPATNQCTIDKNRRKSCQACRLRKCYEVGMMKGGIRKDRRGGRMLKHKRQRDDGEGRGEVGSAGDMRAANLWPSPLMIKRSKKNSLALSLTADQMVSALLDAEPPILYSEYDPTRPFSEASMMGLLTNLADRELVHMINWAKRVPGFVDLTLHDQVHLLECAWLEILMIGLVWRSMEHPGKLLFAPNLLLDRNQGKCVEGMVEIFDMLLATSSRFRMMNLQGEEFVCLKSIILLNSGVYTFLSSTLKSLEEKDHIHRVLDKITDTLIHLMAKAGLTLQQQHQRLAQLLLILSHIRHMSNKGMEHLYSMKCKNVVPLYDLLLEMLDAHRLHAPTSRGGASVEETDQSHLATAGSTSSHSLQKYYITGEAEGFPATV

Androgen receptor = target: T5, Androgen receptor (Homo sapiens, UniProt P10275); test: Antagonist activity at human AR expressed in HEK293 cells measured after 24 hrs by luciferase reporter gene assay; assay type: cell-based
T5 sequence (P10275 whole entry): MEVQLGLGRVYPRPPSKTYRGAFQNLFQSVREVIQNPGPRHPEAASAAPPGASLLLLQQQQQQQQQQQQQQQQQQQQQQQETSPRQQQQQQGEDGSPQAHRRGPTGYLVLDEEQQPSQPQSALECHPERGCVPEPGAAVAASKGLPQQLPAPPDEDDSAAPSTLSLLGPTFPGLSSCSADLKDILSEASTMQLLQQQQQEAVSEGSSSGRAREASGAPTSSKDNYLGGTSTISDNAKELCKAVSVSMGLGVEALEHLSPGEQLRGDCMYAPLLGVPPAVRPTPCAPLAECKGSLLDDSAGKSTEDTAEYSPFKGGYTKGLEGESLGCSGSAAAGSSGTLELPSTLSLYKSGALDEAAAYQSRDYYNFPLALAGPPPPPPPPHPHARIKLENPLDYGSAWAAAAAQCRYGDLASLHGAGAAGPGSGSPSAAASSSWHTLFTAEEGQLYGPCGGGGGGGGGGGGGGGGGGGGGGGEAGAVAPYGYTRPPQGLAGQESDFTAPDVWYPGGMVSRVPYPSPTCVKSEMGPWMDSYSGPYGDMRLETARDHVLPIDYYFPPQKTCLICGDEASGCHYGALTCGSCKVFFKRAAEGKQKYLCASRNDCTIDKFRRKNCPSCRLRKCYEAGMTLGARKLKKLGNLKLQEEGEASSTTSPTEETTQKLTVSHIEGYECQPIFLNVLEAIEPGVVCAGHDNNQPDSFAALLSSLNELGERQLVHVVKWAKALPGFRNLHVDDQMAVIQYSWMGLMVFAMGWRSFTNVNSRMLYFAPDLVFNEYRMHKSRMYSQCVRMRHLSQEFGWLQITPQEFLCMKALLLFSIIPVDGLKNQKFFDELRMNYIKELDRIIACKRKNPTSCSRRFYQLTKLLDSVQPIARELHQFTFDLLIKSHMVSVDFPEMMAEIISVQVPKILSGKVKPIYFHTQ

SMILES	IC50 (Progesterone receptor [1]) [nM]	also measured
CN(c1ccc(Oc2ccccc2)cc1)S(=O)(=O)c1ccc(Cl)cc1	960	–
COc1ccc(S(=O)(=O)Nc2ccc(Oc3ccccc3)cc2)cc1	500	–
CN(c1ccc(Oc2ccccc2)cc1)S(=O)(=O)c1ccccc1Cl	390	–
O=S(=O)(Cc1ccccc1)Nc1ccc(Oc2ccccc2)cc1	1600	–
COc1cccc(S(=O)(=O)Nc2ccc(Oc3ccc(O)cc3)c(C)c2)c1	2000	–
COc1cccc(S(=O)(=O)N(Cc2ccccc2)c2ccc(Oc3ccccc3)cc2)c1	2600	–
COc1cccc(S(=O)(=O)N(C)c2ccc(Oc3ccccc3)cc2)c1	470	–
O=S(=O)(Nc1ccc(Oc2ccccc2)cc1)c1ccc(Cl)c(Cl)c1	410	–
CS(=O)(=O)Nc1ccc(Oc2ccccc2)cc1	2200	–
COc1cccc(Oc2ccc(NS(=O)(=O)c3cccc(OC)c3)cc2)c1	370	–
CC(C)c1ccc(NS(=O)(=O)c2cccc(Cl)c2)cc1	510	–
O=S(=O)(Nc1ccc(-c2ccccc2)cc1)c1cccc(Cl)c1	330	IC50 (Progesterone receptor [2]): 110 nM
O=S(=O)(Nc1ccc(Br)cc1)c1cccc(Cl)c1	1300	–
Cc1ccc(NS(=O)(=O)c2cccc(Cl)c2)cc1	1300	–
O=S(=O)(Nc1ccc(Oc2ccccc2)cc1)c1ccc2ccccc2c1	1700	–
O=S(=O)(Nc1ccc(Oc2ccccc2)cc1)c1cccc(F)c1	220	IC50 (Progesterone receptor [2]): 310 nM
O=S(=O)(c1ccccc1Cl)N(Cc1ccccc1)c1ccc(Oc2ccccc2)cc1	2200	–
O=S(=O)(Nc1ccc(Oc2ccccc2)cc1)c1cccc(Cl)c1	170	IC50 (Progesterone receptor [2]): 62 nM
O=C(c1ccccc1)c1ccc(NS(=O)(=O)c2cccc(Cl)c2)cc1	6000	IC50 (Progesterone receptor [2]): > 10000 nM
O=S(=O)(Nc1ccc(Oc2ccccc2)cc1)c1cc(Cl)cc(Cl)c1	320	–
O=S(=O)(Nc1ccc(Oc2ccccc2)cc1)c1cccc(C(F)(F)F)c1	33	inhibition [3]: Active; IC50 (Estrogen receptor beta): 23000 nM; IC50 (Glucocorticoid receptor): 12000 nM; IC50 (Progesterone receptor [2]): 40 nM; IC50 (Estrogen receptor): > 30000 nM; IC50 (Androgen receptor): 5300 nM
O=S(=O)(Nc1ccc(Oc2ccccc2)cc1)c1ccccc1Cl	740	–
O=S(=O)(c1ccc(Cl)cc1)N(Cc1ccccc1)c1ccc(Oc2ccccc2)cc1	3000	–
O=S(=O)(Nc1ccc(Oc2ccccc2)cc1)c1cccc2ccccc12	190	–
O=C(Nc1ccc(Oc2ccccc2)cc1)c1ccccc1	2800	–

The remaining molecules from weak to strong by IC50 (Progesterone receptor [1]), led by results:

IC50 (Progesterone receptor [1]) [nM]	SMILES	also measured
5000	COc1cccc(C(=O)Nc2ccc(Oc3ccc(O)cc3)c(C)c2)c1	–
3800	COc1cccc(Oc2ccc(NC(=O)c3ccccc3)cc2)c1	–
3500	COc1ccc(S(=O)(=O)N(Cc2ccccc2)c2ccc(Oc3ccccc3)cc2)cc1	–
2200	O=S(=O)(c1cccc(Cl)c1)N(Cc1ccccc1)c1ccc(Oc2ccccc2)cc1	–
1600	O=S(=O)(Nc1ccc(Oc2ccccc2)cc1)c1cc(Cl)c(Cl)cc1Cl	–
1500	O=S(=O)(Nc1ccccc1)c1cccc(Cl)c1	–
990	COc1ccc(S(=O)(=O)N(C)c2ccc(Oc3ccccc3)cc2)cc1	–
820	COc1ccc(NS(=O)(=O)c2cccc(Cl)c2)cc1	–
810	O=S(=O)(Nc1ccc(OCc2ccccc2)cc1)c1cccc(Cl)c1	–
670	O=S(=O)(Nc1ccc(Oc2ccccc2)cc1)c1ccc(Cl)cc1	–
650	CN(c1ccc(Oc2ccccc2)cc1)S(=O)(=O)c1cccc(Cl)c1	–
640	O=S(=O)(Nc1ccc(Oc2ccccc2)cc1)c1cccc(Cl)c1Cl	–
520	O=S(=O)(Nc1ccc(Oc2ccccc2)cc1)c1ccccc1	–
490	COc1cccc(Oc2ccc(NS(=O)(=O)c3ccccc3)cc2)c1	–
450	O=S(=O)(Nc1ccc(Cc2ccccc2)cc1)c1cccc(Cl)c1	–
300	N#Cc1cccc(S(=O)(=O)Nc2ccc(Oc3ccccc3)cc2)c1	–
270	COc1cccc(Oc2ccc(NS(=O)(=O)c3cccc(Cl)c3)cc2)c1	–
250	COc1cccc(S(=O)(=O)Nc2ccc(Oc3ccccc3)cc2)c1	–
140	O=[N+]([O-])c1cccc(S(=O)(=O)Nc2ccc(Oc3ccccc3)cc2)c1	IC50 (Progesterone receptor [2]): 140 nM
110	O=S(=O)(Nc1ccc(Oc2ccccc2)cc1)c1cccc(Br)c1	IC50 (Progesterone receptor [2]): 47 nM
